Data on two compounds can be found in patent publication US7332279B2 (Glycozym APS, priority 1999, dated 2008).

Each structure is given as a SMILES string.

For one assay, the target named is T1, β3Gal-T5 (Homo sapiens, UniProt Q9Y2C3, M85T).
T1 construct: Full length enzymes were assayed with 1% Triton CF54 homogenates of washed cells; made in house; host or cells: Sf9 cells, baculovirus (pVL1193)
T1 sequence (Q9Y2C3 1-310 M85T): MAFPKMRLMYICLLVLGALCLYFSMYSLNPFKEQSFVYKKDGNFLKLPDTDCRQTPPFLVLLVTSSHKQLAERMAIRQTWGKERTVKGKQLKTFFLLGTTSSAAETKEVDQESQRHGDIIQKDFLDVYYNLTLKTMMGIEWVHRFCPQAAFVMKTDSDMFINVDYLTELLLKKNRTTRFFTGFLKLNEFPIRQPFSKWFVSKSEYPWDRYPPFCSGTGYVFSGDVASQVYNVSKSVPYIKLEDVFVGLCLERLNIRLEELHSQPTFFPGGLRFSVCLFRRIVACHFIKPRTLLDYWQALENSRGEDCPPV
Kind of assay: Activity of full coding construct of β3Gal-T5 expressed in Sf9 cells (Triton CF54 homogenates or media). The format is biochemical. The settings on record: 60 hrs post-infection, acceptor 20 mM. The source says:
PCR product was cloned into the BamHI site of pAcGP67B (Pharmingen). […] This PCR product was cloned into the BamHI site of pVL1193 (Pharmingen). Both soluble and full length constructs were fully sequenced to confirm fidelity. Plasmids […]5-full were co-transfected with Baculo-GoldTM DNA (Pharmingen) as described previously (Bennett, […]. and Clausen, H. cDNA cloning and expression of a novel human UDP-N-acetyl-alpha-D-galactosamine. Polypeptide N-acetyl-galactosaminyl-transferase, GalNAc-T3. J. Biol. Chem. 271:17006-17012, 1996). Recombinant Baculo-virus were obtained after two successive amplifications in Sf9 cells grown in serum-containing medium, and titers of virus were estimated by titration in 24-well plates with monitoring of enzyme activities. […] J. Biol. […] J. Biol. […] Polypeptide N-acetyl-galactosaminyl-transferase, GalNAc-T3. J. Biol. Chem. 271:17006-17012, 1996). For large scale expression amplified virus was used to infect High FiveTM cells grown in serum-free media (Invitrogen) in upright roller bottles shaking at 140 rpm and 27° C. The kinetic properties were determined with partially purified, secreted forms of the enzymes. […] Reaction products were quantified by Dowex-1 chromatography. […] The transfer of Gal was evaluated after acid precipitation by filtration through Whatman GF/C glass fibre filters. […]

A further assay addresses T2, β3Gal-T1 (Homo sapiens, UniProt Q9Y5Z6).
T2 construct: Full length enzymes were assayed with 1% Triton CF54 homogenates of washed cells; made in house; host or cells: Sf9 cells, baculovirus
T2 sequence (Q9Y5Z6 1-326): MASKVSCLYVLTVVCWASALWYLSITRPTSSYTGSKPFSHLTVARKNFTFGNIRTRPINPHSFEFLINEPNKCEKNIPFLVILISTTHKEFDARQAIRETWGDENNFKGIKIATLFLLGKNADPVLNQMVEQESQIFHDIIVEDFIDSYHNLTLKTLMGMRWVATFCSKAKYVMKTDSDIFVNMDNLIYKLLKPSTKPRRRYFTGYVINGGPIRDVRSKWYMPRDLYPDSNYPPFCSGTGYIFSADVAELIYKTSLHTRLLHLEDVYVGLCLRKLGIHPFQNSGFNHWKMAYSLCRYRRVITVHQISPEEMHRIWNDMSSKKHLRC
Put plainly: Activity of full coding construct of β3Gal-T1 expressed in Sf9 cells (Triton CF54 homogenates or media). The format is biochemical. The settings on record: 60 hrs post-infection, acceptor 20 mM.

The test system of assay [1] is porcine tracheal β3Gal-transferase activity. The settings on record: acceptor substrate; read-out: apparent Km, porcine β3Gal-transferase activity; cited from earlier work.

For `CC(=O)N[C@H]1[C@H](OCc2ccccc2)O[C@H](CO)[C@@H](O)[C@@H]1O` [β-D-GlcNAc-Bzl], the “β3Gal-T5 full coding construct activity, Cells” value at β3Gal-T5 (1% Triton CF54 cell homogenate) was determined as 1.5 nmol/min/mL. The “β3Gal-T5 full coding construct activity, Media” value on β3Gal-T5 (media) turned out to be 0.1 nmol/min/mL. Moreover, the “β3Gal-T1 full coding construct activity, Cells” value at β3Gal-T1 (1% Triton CF54 cell homogenate) amounted to 7.2 nmol/min/mL. In addition, the “β3Gal-T1 full coding construct activity, Media” value at β3Gal-T1 (media) stood at 0.2 nmol/min/mL.

Usually Km stands for the substrate concentration at which the rate is half of its maximum. Regarding `CC(=O)NC1C(OC2C(O)C(CO)OC(Oc3ccc([N+](=O)[O-])cc3)C2NC(C)=O)OC(CO)C(O)C1O` [β-D-GlcNAc-(1–3)-α-D-GalNAc-p-Nph], in assay [1], the Km was 2400 µM.
